Experimental data reported in patent US9642366B2, “Active substance combinations that have nematicidal, insecticidal, and fungicidal properties and are based on trifluorobutenyl compounds” (priority 2003, dated 2017).
“And” between values parts separate entries of the source, which are not always exact repeats. Equal values may be shown once.

Tests used:
Phythium ultimum = experiment: Mycelium growth test with Phythium ultimum; assay type: cell-based; conditions: single active compound
Phytophthora cactorum = experiment: Mycelium growth test with Phytophthora cactorum; assay type: cell-based; conditions: single active compound
[1] = system: Plutella xylostella, sensitive strain; experiment: Plutella test, sensitive strain (insecticidal action, dipped cabbage leaves); assay type: in vivo; conditions: 100 ppm, single active compound
Source text: (§1) The expected action for a given combination of two active compounds can be calculated as follows (cf. Colby, S. R., “Calculating Synergistic and Antagonistic Responses of Herbicide Combinations”, Weeds 15 (1967), 20-22):
(§2) If • X is the efficacy or kill rate, expressed as a percentage of the untreated control, when employing active compound A in a concentration of m ppm, • Y is the efficacy or kill rate, expressed as a percentage of the untreated control, when employing active compound B in a concentration of […] and • E is the efficacy or kill rate, expressed as a percentage of the untreated control, when employing active compounds A and B in a concentration of m and n ppm,
(§3) If the actual fungicidal or nematicidal, insecticidal and/or acaricidal action exceeds the calculated value, the action of the combination is superadditive, i.e. a synergistic effect is present. In this case, the actually observed efficacy or kill rate must exceed the value calculated using the above formula for the expected efficacy (E).
Solvent: 7 parts by weight of dimethylformamide […]
Cabbage leaves (Brassica oleracea) are treated by being dipped into the preparation of active compound of the desired concentration and are populated with caterpillars of the diamondback moth (Plutella xylostella, sensitive strain) while the leaves are still moist. After the desired period of time, the kill in % is determined. […]

Rhizoctonia solani = experiment: Mycelium growth test with Rhizoctonia solani; assay type: cell-based; conditions: single active compound
Meloidogyne incognita = experiment: Meloidogyne test (nematicidal action, gall formation on lettuce roots); assay type: in vivo; conditions: single active compound
Source text: as §1, §2, §3
Solvent: 7 parts by weight of dimethylformamide
Emulsifier: 2 parts by weight of alkylaryl polyglycol ether
To produce a suitable preparation of active compound, 1 part by weight of active compound is mixed with the stated amounts of solvent and emulsifier, and the concentrate is diluted with water to the desired concentration.
Vessels are filled with sand, solution of active compound, Meloidogyne incognita egg/larvae suspension and lettuce seeds. The lettuce seeds germinate and plants develop. On the roots, galls are formed.
After the desired period of time, the nematicidal action is determined in % by the formation of galls. 100% means that no galls have been found; 0% means that the number of galls on the treated plants corresponds to that of the untreated control. The determined kill rates are inserted into Colby's formula.

Fusarium nivale = experiment: Mycelium growth test with Fusarium nivale; assay type: cell-based; conditions: 1 ppm in the nutrient medium, single active compound

Compound: tolylfluanid
- Efficacy [%] (Phythium ultimum; 10 ppm in the nutrient medium): 82%
- Efficacy [%] (Phytophthora cactorum; 10 ppm in the nutrient medium): 65%

Compound: CCCN(CCOc1c(Cl)cc(Cl)cc1Cl)C(=O)n1ccnc1 [prochloraz]
- Efficacy [%] (Phytophthora cactorum; 50 ppm in the nutrient medium): 30%

Compound: CC(C)NC(=O)N1CC(=O)N(c2cc(Cl)cc(Cl)c2)C1=O [iprodione]
- Efficacy [%] (Phythium ultimum; 200 ppm in the nutrient medium): 9%

Compound: CO/N=C(\C(=O)OC)c1ccccc1CO/N=C(\C)c1cccc(C(F)(F)F)c1 [trifloxystrobin]
- Kill rate [%] after 3 days [1]: 15%
- Efficacy [%] (Rhizoctonia solani; 1 ppm in the nutrient medium): 39%
- Efficacy [%] (Phytophthora cactorum; 10 ppm in the nutrient medium): 29%
- Kill rate [%] after 14 days (Meloidogyne incognita; 20 ppm): 0%

Compound: OC(Cc1ccccc1Cl)(Cn1nc[nH]c1=S)C1(Cl)CC1 (centres unmarked) [prothioconazole]
- Kill rate [%] after 14 days (Meloidogyne incognita; 20 ppm): 50%

Compound: O=S(=O)(CCC(F)=C(F)F)c1ncc(Cl)s1 [(IC)]
- Efficacy [%] (Fusarium nivale): 15%
- Kill rate [%] after 3 days [1]: 0%
- Efficacy [%] (Rhizoctonia solani; 1 ppm in the nutrient medium): 0%
- Efficacy [%] (Rhizoctonia solani; 10 ppm in the nutrient medium): 49%
- Efficacy [%] (Phytophthora cactorum; 50 ppm in the nutrient medium): 7%
- Efficacy [%] (Phytophthora cactorum; 100 ppm in the nutrient medium): 18% and 23%
- Kill rate [%] after 14 days (Meloidogyne incognita; 0.8 ppm): 50%

Compound: CO/N=C(/C1=NOCCO1)c1ccccc1Oc1ncnc(Oc2ccccc2Cl)c1F [fluoxastrobin]
- Efficacy [%] (Phythium ultimum; 10 ppm in the nutrient medium): 74%
- Efficacy [%] (Rhizoctonia solani; 1 ppm in the nutrient medium): 39%
- Efficacy [%] (Phytophthora cactorum; 5 ppm in the nutrient medium): 28%

Compound: N#Cc1c[nH]cc1-c1cccc2c1OC(F)(F)O2 [fludioxonil]
- Kill rate [%] after 14 days (Meloidogyne incognita; 20 ppm): 0%

Compound: CC(C)(C)C(O)(CCc1ccc(Cl)cc1)Cn1cncn1 (centres unmarked) [tebuconazole]
- Efficacy [%] (Phythium ultimum; 100 ppm in the nutrient medium): 72%
- Efficacy [%] (Phytophthora cactorum; 100 ppm in the nutrient medium): 12%

Compound: O=C(Nc1ccccc1)N(Cc1ccc(Cl)cc1)C1CCCC1 [pencycuron]
- Efficacy [%] (Phytophthora cactorum; 200 ppm in the nutrient medium): 0%
